Source: PubChem BioAssay AID330 (DTP/NCI, 2004)
Where “and” joins values, the source holds several entries; their conditions need not be identical. Equal values may be shown once. Inconclusive results and toxic doses are left out.

Test system: P388 leukemia ip, CD2F1 mice, survival T/C
Assay: NCI In Vivo Anticancer Drug Screen. Data for tumor model P388 Leukemia (intraperitoneal) in CD2F1 (CDF1) mice
Conditions: endpoint: median survival time, higher = longer survival
Summary of the method: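 Mice carrying the transplanted tumor received test compound or vehicle. Survival was recorded in each group, and the value is the treated-group measurement divided by that of the vehicle-treated control group.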

[1] = dose: 50.0 mg/kg/injection, schedule: Q01DX005 (ip), vehicle: saline with Tween-80
[2] = dose: 100.0 mg/kg/injection, schedule: Q01DX005 (ip), vehicle: saline with Tween-80
[3] = dose: 200.0 mg/kg/injection, schedule: Q01DX005 (ip), vehicle: saline with Tween-80
[4] = dose: 100.0 mg/kg/injection, schedule: Q04DX002 (ip), vehicle: saline with Tween-80
[5] = dose: 50.0 mg/kg/injection, schedule: Q01DX009 (ip), vehicle: saline with Tween-80
[6] = dose: 100.0 mg/kg/injection, schedule: Q01DX009 (ip), vehicle: saline with Tween-80
[7] = dose: 60.0 mg/kg/injection, schedule: Q01DX005 (ip), vehicle: Klucel (hydroxypropylcellulose) (HPC)
[8] = dose: 120.0 mg/kg/injection, schedule: Q01DX005 (ip), vehicle: Klucel (hydroxypropylcellulose) (HPC)
[9] = dose: 240.0 mg/kg/injection, schedule: Q01DX005 (ip), vehicle: Klucel (hydroxypropylcellulose) (HPC)
[10] = dose: 120.0 mg/kg/injection, schedule: Q01DX005 (ip), vehicle: saline with Tween-80
[11] = dose: 100.0 mg/kg/injection, schedule: Q04DX003 (ip), vehicle: saline
[12] = dose: 200.0 mg/kg/injection, schedule: Q04DX003 (ip), vehicle: saline
[13] = dose: 400.0 mg/kg/injection, schedule: Q04DX003 (ip), vehicle: saline
[14] = dose: 50.0 mg/kg/injection, schedule: Q01DX005 (ip), vehicle: Klucel (hydroxypropylcellulose) (HPC)
[15] = dose: 100.0 mg/kg/injection, schedule: Q01DX005 (ip), vehicle: Klucel (hydroxypropylcellulose) (HPC)
[16] = dose: 200.0 mg/kg/injection, schedule: Q01DX005 (ip), vehicle: Klucel (hydroxypropylcellulose) (HPC)

CC1(C)CC([P+](c2ccccc2)(c2ccccc2)c2ccccc2)=NN1
T/C (dose: 0.78 mg/kg/injection, schedule: Q01DX009 (ip), vehicle: saline with Tween-80): 115 % of control and 119 % of control | T/C (dose: 12.5 mg/kg/injection, schedule: Q01DX001 (ip), vehicle: saline): 123 % of control | T/C (dose: 12.5 mg/kg/injection, schedule: Q01DX009 (ip), vehicle: saline with Tween-80): 100 % of control | T/C (dose: 25.0 mg/kg/injection, schedule: Q01DX001 (ip), vehicle: saline): 122 % of control

CCOC(=O)C1CC1C1=C(C)c2cc3[n-]c(cc4nc(cc5[n-]c(cc1n2)c(C)c5CCC(=O)OC)C(CCC(=O)OC)=C4C)c(C)c3C1CC1C(=O)OCC.[Zn+2] (configuration not stated)
T/C [1]: 95 % of control | T/C [2]: 89 % of control | T/C [3]: 89 % of control

CCCCCCCN(CCCCCCC)CC(O)c1ccc2ccc3ccc(Cl)cc3c2c1 (configuration not stated)
T/C [1]: 96 % of control | T/C [2]: 96 % of control | T/C [3]: 104 % of control

[I][Pt+2][I].[NH-]C1CCCC1[NH-] (configuration not stated)
T/C [4]: 166 % of control

O=C1Cc2ccccc2C(=O)N1
T/C (dose: 100.0 mg/kg/injection, schedule: Q04DX003 (ip), vehicle: saline with Tween-80): 100 % of control | T/C (dose: 200.0 mg/kg/injection, schedule: Q04DX003 (ip), vehicle: saline with Tween-80): 95 % of control

C=CCOc1cc2c(cc1C(C)c1ccc(OC)c(C)c1)OCO2 (configuration not stated)
T/C [1]: 100 % of control | T/C [2]: 95 % of control | T/C [3]: 120 % of control

C/C=C1/CN2CCc3c([nH]c4ccccc34)C2CC1C(Cc1c[n+]2c(c3[nH]c4ccccc4c13)CC1C(C(=O)OC)=COC(C)C1C2)C(=O)OC (configuration not stated)
T/C (dose: 25.0 mg/kg/injection, schedule: Q01DX009 (ip), vehicle: saline with Tween-80): 91 % of control | T/C [5]: 89 % of control | T/C [6]: 90 % of control

CCC(C)Nc1c(N)cc(C(F)(F)F)cc1N (configuration not stated)
T/C [7]: 98 % of control | T/C [8]: 97 % of control | T/C [9]: 99 % of control

C[CH2][Sn]([CH2]C)([O]P(=O)(C[Si](C)(C)C)c1ccccc1)[O]P(=O)(C[Si](C)(C)C)c1ccccc1 (configuration not stated)
T/C (dose: 30.0 mg/kg/injection, schedule: Q01DX005 (ip), vehicle: saline with Tween-80): 115 % of control | T/C [10]: 151 % of control

c1ccc(Cc2ccc[nH]2)cc1
T/C (dose: 100.0 mg/kg/injection, schedule: Q01DX001 (ip), vehicle: distilled water + alcohol): 100 % of control | T/C (dose: 200.0 mg/kg/injection, schedule: Q01DX001 (ip), vehicle: distilled water + alcohol): 98 % of control | T/C (dose: 400.0 mg/kg/injection, schedule: Q01DX001 (ip), vehicle: distilled water + alcohol): 112 % of control

CN(C)[C@@H]1C(=O)C(C(=O)NCNc2nc3n[nH]nc3c(=O)[nH]2)=C(O)[C@@]2(O)C(=O)C3=C(O)c4c(O)cccc4[C@@](C)(O)[C@H]3C[C@@H]12
T/C (dose: 50.0 mg/kg/injection, schedule: Q04DX003 (ip), vehicle: saline): 102 % of control | T/C [11]: 100 % of control | T/C [12]: 107 % of control | T/C [13]: 111 % of control

NC1C[S][Sn]2([O]C1=O)[O]C(=O)C(N)C[S]2 (configuration not stated)
T/C [14]: 99 % of control | T/C [15]: 100 % of control | T/C [16]: 100 % of control

COc1ccc(-c2csc(=[N+]3CCCCC3)s2)cc1
T/C (dose: 3.13 mg/kg/injection, schedule: Q01DX009 (ip), vehicle: water): 100 % of control | T/C (dose: 6.25 mg/kg/injection, schedule: Q01DX009 (ip), vehicle: water): 105 % of control and 110 % of control

CCN(CC)C(=O)C(C)C1=NS(=O)(=O)c2ccccc21 (configuration not stated)
T/C (dose: 75.0 mg/kg/injection, schedule: Q04DX003 (ip), vehicle: Klucel (hydroxypropylcellulose) (HPC)): 101 % of control | T/C (dose: 150.0 mg/kg/injection, schedule: Q04DX003 (ip), vehicle: Klucel (hydroxypropylcellulose) (HPC)): 99 % of control | T/C (dose: 300.0 mg/kg/injection, schedule: Q04DX003 (ip), vehicle: Klucel (hydroxypropylcellulose) (HPC)): 100 % of control

NP1(Oc2ccc(F)cc2)=NP(N)(Oc2ccc(F)cc2)=NP(Oc2ccc(F)cc2)(Oc2ccc(F)cc2)=N1 (configuration not stated)
T/C (dose: 60.0 mg/kg/injection, schedule: Q01DX005 (ip), vehicle: saline with Tween-80): 90 % of control | T/C [10]: 96 % of control | T/C (dose: 240.0 mg/kg/injection, schedule: Q01DX005 (ip), vehicle: saline with Tween-80): 89 % of control

COc1ccccc1Nc1nc(-c2ccc(O)c(O)c2)cs1
T/C [1]: 97 % of control | T/C [2]: 89 % of control | T/C [3]: 103 % of control

COc1ccc2c(c1)C=C([N+](=O)[O-])C(N1CCOCC1)O2 (configuration not stated)
T/C (dose: 12.5 mg/kg/injection, schedule: Q01DX005 (ip), vehicle: Klucel (hydroxypropylcellulose) (HPC)): 106 % of control | T/C (dose: 25.0 mg/kg/injection, schedule: Q01DX005 (ip), vehicle: Klucel (hydroxypropylcellulose) (HPC)): 108 % of control | T/C [14]: 101 % of control and 109 % of control

CS(=O)(=O)OCCCCCCCCCCCC1C=CCC1 (configuration not stated)
T/C [11]: 94 % of control | T/C [12]: 93 % of control | T/C [13]: 94 % of control

C#Cc1cccc(NC(=O)c2ccc(Cl)cc2Cl)c1
T/C [7]: 100 % of control | T/C [8]: 104 % of control | T/C [9]: 105 % of control

FC(F)(F)C1(C(F)(F)F)OP2(c3ccccc3)(OC(C(F)(F)F)(C(F)(F)F)c3ccccc32)c2ccccc21
T/C [14]: 98 % of control | T/C [15]: 91 % of control | T/C [16]: 100 % of control

CN1NC(c2ccccc2)NN(C)C1=S
T/C [7]: 101 % of control | T/C [8]: 98 % of control | T/C [9]: 106 % of control

CSC(/C=C1\C=CN(Cc2ccccc2)c2ccccc21)=N\S(=O)(=O)c1ccc(C)cc1
T/C (dose: 25.0 mg/kg/injection, schedule: Q04DX002 (ip), vehicle: saline with Tween-80): 102 % of control | T/C (dose: 50.0 mg/kg/injection, schedule: Q04DX002 (ip), vehicle: saline with Tween-80): 97 % of control | T/C [4]: 97 % of control

O/C(=C\C(=S)S)c1ccccc1
T/C (dose: 1.56 mg/kg/injection, schedule: Q04DX003 (ip), vehicle: Klucel (hydroxypropylcellulose) (HPC)): 96 % of control | T/C (dose: 3.12 mg/kg/injection, schedule: Q04DX003 (ip), vehicle: Klucel (hydroxypropylcellulose) (HPC)): 96 % of control | T/C (dose: 6.25 mg/kg/injection, schedule: Q04DX003 (ip), vehicle: Klucel (hydroxypropylcellulose) (HPC)): 97 % of control

COc1cc(Br)c(C(=O)Nc2ccc(O)cc2)cc1OC
T/C (dose: 25.0 mg/kg/injection, schedule: Q01DX009 (ip), vehicle: other): 103 % of control and 107 % of control | T/C (dose: 50.0 mg/kg/injection, schedule: Q01DX009 (ip), vehicle: other): 110 % of control | T/C (dose: 100.0 mg/kg/injection, schedule: Q01DX009 (ip), vehicle: other): 106 % of control and 118 % of control | T/C (dose: 200.0 mg/kg/injection, schedule: Q01DX009 (ip), vehicle: other): 106 % of control and 117 % of control | T/C (dose: 400.0 mg/kg/injection, schedule: Q01DX009 (ip), vehicle: other): 106 % of control

O=c1cccc[nH]1
T/C (dose: 50.0 mg/kg/injection, schedule: Q01DX009 (ip), vehicle: saline): 104 % of control and 112 % of control and 121 % of control | T/C (dose: 100.0 mg/kg/injection, schedule: Q01DX009 (ip), vehicle: saline): 107 % of control and 109 % of control and 110 % of control | T/C (dose: 200.0 mg/kg/injection, schedule: Q01DX009 (ip), vehicle: saline): 104 % of control and 105 % of control and 118 % of control | T/C (dose: 400.0 mg/kg/injection, schedule: Q01DX009 (ip), vehicle: saline): 108 % of control and 96 % of control | T/C (dose: 600.0 mg/kg/injection, schedule: Q01DX009 (ip), vehicle: saline): 121 % of control

C=CCOc1cc2c(cc1C(C)c1ccc(OCC)c(C)c1)OCO2 (configuration not stated)
T/C [1]: 106 % of control | T/C [2]: 103 % of control | T/C [3]: 106 % of control

CCN(CC)CCNC1CC(C)CC(C)(C)C1 (configuration not stated)
T/C [1]: 103 % of control | T/C [2]: 101 % of control

CCOC(=O)NCCF
T/C (dose: 0.78 mg/kg/injection, schedule: Q01DX009 (ip), vehicle: saline): 96 % of control | T/C (dose: 1.56 mg/kg/injection, schedule: Q01DX009 (ip), vehicle: saline): 101 % of control | T/C (dose: 3.12 mg/kg/injection, schedule: Q01DX009 (ip), vehicle: saline): 101 % of control

O=c1oc(-c2ccccc2)cc(N2CCCCC2)c1Cl
T/C [5]: 97 % of control | T/C [6]: 97 % of control | T/C (dose: 200.0 mg/kg/injection, schedule: Q01DX009 (ip), vehicle: saline with Tween-80): 97 % of control
